Where no end group is shown, it is not given here. [ ]: non-standard residue; d: D form. The star is where a group is joined. AOA = aminooxyacetyl (N-terminus modified with aminooxyacetamide), NOCC(=O)*; pY = N[C@@H](Cc1ccc(OP(=O)(O)O)cc1)C(=O)O
Each substance was assayed against corresponding anti-peptide antibody (assay: Dissociation constants (KD) between peptide and its corresponding antibody, ForteBio instrument).
Type: binding, rabbit
Text: Goat anti-mouse and goat anti-rabbit antibodies were purchased from ImmunoReagents, Inc. (Raleigh, NC). Rabbit monoclonal anti-estrogen receptor (ER), anti-progesterone receptor (PR) and anti-HER2/neu receptor (HER2) antibodies were purchased from Epitomics, Inc. (Fremont, CA). Mouse anti-Ki67 was purchased from BD Biosciences, San Diego, CA Rabbit monoclonal anti-peptide antibodies against PEP1, PEP2, PEP3, PEP4, and PEP5 were obtained from AvantGen, Inc. (San Diego, CA).
The “AOA” group (aminooxyacetamide) was used to attach the peptide to the 4FB-modified primary antibody. Also shown in Table 1 are the dissociation constants (KD) between peptide and its corresponding antibody. These values were obtained using a ForteBio instrument (www.fortebio.com).
“AOA-DATNVGDEGGFAPNILENK ({AOA}-DATNVGDEGGFAPNILENK) [PEP3]” showed a Kd of 0.09 nM. With “AOA-DITSDTSGDFR ({AOA}-DITSDTSGDFR) [PEP2]” the Kd was 0.16 nM. In the case of “AOA-ETSGLQEQRNHLQGK-NH2 (HELM PEPTIDE1{[NOCC(=O)[*:2]].E.T.S.G.L.Q.E.Q.R.N.H.L.Q.G.K.[am]}$$$$V2.0; SMILES CC(C)C[C@H](NC(=O)CNC(=O)[C@H](CO)NC(=O)[C@@H](NC(=O)[C@H](CCC(=O)O)NC(=O)CON)[C@@H](C)O)C(=O)N[C@@H](CCC(N)=O)C(=O)N[C@@H](CCC(=O)O)C(=O)N[C@@H](CCC(N)=O)C(=O)N[C@@H](CCCNC(=N)N)C(=O)N[C@@H](CC(N)=O)C(=O)N[C@@H](Cc1c[nH]cn1)C(=O)N[C@@H](CC(C)C)C(=O)N[C@@H](CCC(N)=O)C(=O)NCC(=O)N[C@@H](CCCCN)C(N)=O) [PEP6]”, the Kd is reported as 0.02 nM. “AOA-GLEPGQEYNVLLTAEK ({AOA}-GLEPGQEYNVLLTAEK) [PEP4]” gave a Kd of 0.09 nM. With “AOA-LALQAQPVPDELVTK ({AOA}-LALQAQPVPDELVTK) [PEP1]” the Kd was 0.09 nM. Substance “AOA-RPHFPQF-pY-SASGTA ({AOA}-RPHFPQF[pY]SASGTA) [PEP5]” has a Kd of 0.04 nM.
